Assay results published in US20260232658A1, “AZETIDINYL BENZOXAZOLE COMPOUNDS AND THEIR USE AS MER AND AXL INHIBITORS” (DONG-A ST CO., LTD., priority 2022, published 2026).

Experiments:
human MER (528-end) = biological target: T1, human MER (528-end) (Homo sapiens, UniProt Q12866); assay: HTRF kinase activity biochemical assay, MER; conditions: recombinant kinase, 10 uM ATP, 30 minutes pre-incubation; read-out: HTRF MERTK IC50;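 further: phosphorylation of a biotin-tagged tyrosine kinase substrate detected by Eu3+-cryptate antibody and streptavidin-XL665 time-resolved fluorescence, read after 1 h at room temperature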
T1 construct: human MER (528-end); purchased Carnabio, Japan
T1 sequence (Q12866 528-999 limits assumed): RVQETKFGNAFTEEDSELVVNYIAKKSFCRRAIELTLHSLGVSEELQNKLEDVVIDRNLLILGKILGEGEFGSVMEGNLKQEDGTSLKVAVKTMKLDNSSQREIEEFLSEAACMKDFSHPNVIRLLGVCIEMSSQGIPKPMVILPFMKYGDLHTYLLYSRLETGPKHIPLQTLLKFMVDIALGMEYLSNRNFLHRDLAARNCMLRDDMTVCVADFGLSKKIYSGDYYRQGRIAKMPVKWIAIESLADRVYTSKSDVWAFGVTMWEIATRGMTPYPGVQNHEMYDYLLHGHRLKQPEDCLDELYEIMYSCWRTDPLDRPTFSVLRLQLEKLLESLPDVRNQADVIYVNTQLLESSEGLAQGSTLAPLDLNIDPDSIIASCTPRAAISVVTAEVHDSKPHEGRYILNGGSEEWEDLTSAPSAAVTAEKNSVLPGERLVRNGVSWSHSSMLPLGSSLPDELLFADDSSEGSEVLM

TYRO3 (455-end) = biological target: T2, TYRO3 (455-end) (Homo sapiens, UniProt Q06418); assay: HTRF kinase activity biochemical assay, TYRO3; conditions: recombinant kinase, 10 uM ATP, 30 minutes pre-incubation; read-out: HTRF TYRO IC50;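 further: biotinylated tyrosine kinase substrate phosphorylation detected via streptavidin-XL665 and Eu3+-cryptate anti-phospho antibody time-resolved fluorescence, read after 1 h detection at room temperature, 384-well format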
T2 construct: TYRO3 (455-end); purchased SignalChem, Canada
T2 sequence (Q06418 455-890 limits assumed): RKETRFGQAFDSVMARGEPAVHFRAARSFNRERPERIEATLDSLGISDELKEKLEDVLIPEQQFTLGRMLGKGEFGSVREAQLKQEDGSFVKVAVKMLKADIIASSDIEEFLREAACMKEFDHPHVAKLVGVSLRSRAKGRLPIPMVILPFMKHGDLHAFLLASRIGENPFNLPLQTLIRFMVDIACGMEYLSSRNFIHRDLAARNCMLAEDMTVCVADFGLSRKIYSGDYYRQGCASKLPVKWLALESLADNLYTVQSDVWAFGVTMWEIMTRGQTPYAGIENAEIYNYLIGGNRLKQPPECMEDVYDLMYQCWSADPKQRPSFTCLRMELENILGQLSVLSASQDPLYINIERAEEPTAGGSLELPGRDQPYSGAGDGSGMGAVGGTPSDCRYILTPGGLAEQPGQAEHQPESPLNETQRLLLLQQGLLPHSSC

MC-38 cells = assay: MC-38 Efficacy Assay (tumor growth inhibition); assay type: in vivo, Female C57BL/6 mice; conditions: once a day for 21 days, subcutaneous MC-38 tumors in C57BL/6 mice
human AXL (473-end) = biological target: T3, human AXL (473-end) (Homo sapiens, UniProt P30530); assay: HTRF kinase activity biochemical assay, AXL; conditions: recombinant kinase, 10 uM ATP, 30 minutes pre-incubation; read-out: HTRF AXL IC50;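 further: phosphorylation of a biotinylated tyrosine kinase substrate detected via Eu3+-cryptate anti-TK antibody and streptavidin-XL665, fluorescence read after a 1 h incubation at room temperature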
T3 construct: human AXL (473-end); purchased SignalChem, Canada
T3 sequence (P30530 473-894 limits assumed): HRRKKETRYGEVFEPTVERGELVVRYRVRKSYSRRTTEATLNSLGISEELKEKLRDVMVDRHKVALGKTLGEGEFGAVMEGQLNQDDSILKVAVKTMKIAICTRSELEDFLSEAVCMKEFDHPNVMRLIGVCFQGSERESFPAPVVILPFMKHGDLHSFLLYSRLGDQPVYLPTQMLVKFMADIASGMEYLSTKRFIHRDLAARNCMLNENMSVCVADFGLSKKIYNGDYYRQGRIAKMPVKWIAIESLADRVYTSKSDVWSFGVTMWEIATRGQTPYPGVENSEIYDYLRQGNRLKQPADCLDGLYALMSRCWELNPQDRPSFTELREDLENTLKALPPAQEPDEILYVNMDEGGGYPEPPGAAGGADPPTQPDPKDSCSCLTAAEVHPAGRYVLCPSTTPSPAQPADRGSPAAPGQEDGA

| Structure (SMILES) | IC50 (human MER (528-end)) [nM] | IC50 (TYRO3 (455-end)) [nM] | % TGI (dose) (MC-38 cells; 15 mg/kg/d) [%] | IC50 (human AXL (473-end)) [nM] | % TGI (dose) (MC-38 cells; 10 mg/kg/d) [%] | % TGI (dose) (MC-38 cells; 30 mg/kg/d) [%] |
| --- | --- | --- | --- | --- | --- | --- |
| Cn1cc(Nc2ncc(C3CN(c4nc5ccc(OCCC(C)(C)OP(=O)(O)O)cc5o4)C3)nc2C(N)=O)cn1 [Example 77, 4-{[2-(3-{6-carbamoyl-5-[(1-methyl-1H-pyrazol-4-yl)amino]pyrazin-2-yl}azetidin-1-yl)-1,3-benzoxazol-6-yl]oxy}-2-methylbutan-2-yl dihydrogen phosphate] | 33 | 3300 | 39 | 54 | – | – |
| CC(C)(O)Cn1cc(Nc2ncc(C3CN(c4nc5ccccc5o4)C3)nc2C(N)=O)cn1 [Example 30, 6-[1-(1,3-benzoxazol-2-yl)azetidin-3-yl]-3-{[1-(2-hydroxy-2-methylpropyl)-1H-pyrazol-4-yl]amino}pyrazine-2-carboxamide] | 3 | 360 | – | 11 | 33 | – |
| Cn1cc(Nc2ncc(C3CN(c4nc5ccc(OCc6ccn(C)n6)cc5o4)C3)nc2C(N)=O)cn1 [Example 80, 3-[(1-methyl-1H-pyrazol-4-yl)amino]-6-(1-{6-[(1-methyl-1H-pyrazol-3-yl)methoxy]-1,3-benzoxazol-2-yl}azetidin-3-yl)pyrazine-2-carboxamide] | < 1 | 48 | – | 1 | 23 | – |
| CN1CCC(Oc2ccc3nc(N4CC(c5cnc(Nc6cnn(C)c6)c(C(N)=O)n5)C4)oc3c2)C1=O (stereo not drawn) [Example 72, 6-(1-{6-[(1-methyl-2-oxopyrrolidin-3-yl)oxy]-1,3-benzoxazol-2-yl}azetidin-3-yl)-3-[(1-methyl-1H-pyrazol-4-yl)amino]pyrazine-2-carboxamide] | 1 | 940 | – | 3 | – | 44 |
| CC(C)(O)Cn1cc(Nc2ncc(C3CN(c4nc5ccc(F)cc5o4)C3)nc2C(N)=O)cn1 [Example 28, 6-[1-(6-fluoro-1,3-benzoxazol-2-yl)azetidin-3-yl]-3-{[1-(2-hydroxy-2-methylpropyl)-1H-pyrazol-4-yl]amino}pyrazine-2-carboxamide] | 1 | 150 | – | 6 | 17 | – |
| Cn1cc(Nc2ncc(C3CN(c4nc5ccc(CC(=O)N6CCCC6)cc5o4)C3)nc2C(N)=O)cn1 [Example 65, 3-[(1-methyl-1H-pyrazol-4-yl)amino]-6-(1-{6-[2-oxo-2-(pyrrolidin-1-yl)ethyl]-1,3-benzoxazol-2-yl}azetidin-3-yl)pyrazine-2-carboxamide] | < 1 | 1010 | – | 1 | – | – |
| Cn1cc(Nc2ncc(C3CN(c4nc5ccc(/C=C/CO)cc5o4)C3)nc2C(N)=O)cn1 [Example 32A, 6-(1-{6-[(1E)-3-hydroxyprop-1-en-1-yl]-1,3-benzoxazol-2-yl}azetidin-3-yl)-3-[(1-methyl-1H-pyrazol-4-yl)amino]pyrazine-2-carboxamide] | < 1 | 140 | – | 2 | – | – |
| Cn1cc(Nc2ncc(C3CN(c4nc5ccc(CCCO)cc5o4)C3)nc2C(N)=O)cn1 [Example 32, 6-{1-[6-(3-hydroxypropyl)-1,3-benzoxazol-2-yl]azetidin-3-yl}-3-[(1-methyl-1H-pyrazol-4-yl)amino]pyrazine-2-carboxamide] | 1 | 190 | – | 3 | – | – |
| CC(C)(O)CCOc1ccc2nc(N3CC(c4cnc(Nc5cn[nH]c5)c(C(N)=O)n4)C3)oc2c1 [Example 96B, 6-{1-[6-(3-hydroxy-3-methylbutoxy)-1,3-benzoxazol-2-yl]azetidin-3-yl}-3-[(1H-pyrazol-4-yl)amino]pyrazine-2-carboxamide] | 2 | 670 | – | 7 | – | – |
| Cn1cc(Nc2ncc(C3CN(c4nc5ccc(OCC6COC(C)(C)OC6)cc5o4)C3)nc2C(N)=O)cn1 [Example 51A, 6-(1-{6-[(2,2-dimethyl-1,3-dioxan-5-yl)methoxy]-1,3-benzoxazol-2-yl}azetidin-3-yl)-3-[(1-methyl-1H-pyrazol-4-yl)amino]pyrazine-2-carboxamide] | 2 | 2380 | – | 17 | – | – |
| Cn1cc(Nc2ncc(C3CN(c4nc5ccc(-c6ccccc6)cc5o4)C3)nc2C(N)=O)cn1 [Example 8, 3-[(1-methyl-1H-pyrazol-4-yl)amino]-6-[1-(6-phenyl-1,3-benzoxazol-2-yl)azetidin-3-yl]pyrazine-2-carboxamide] | 2 | 280 | – | 7 | – | – |
| Cn1cc(Nc2ncc(C3CN(c4nc5ccc(C(C)(C)CO)cc5o4)C3)nc2C(N)=O)cn1 [Example 111, 6-{1-[6-(1-hydroxy-2-methylpropan-2-yl)-1,3-benzoxazol-2-yl]azetidin-3-yl}-3-[(1-methyl-1H-pyrazol-4-yl)amino]pyrazine-2-carboxamide] | 5 | 640 | – | 6 | – | – |
| Cc1cnc(COc2ccc3nc(N4CC(c5cnc(Nc6cnn(C)c6)c(C(N)=O)n5)C4)oc3c2)s1 [Example 82, 3-[(1-methyl-1H-pyrazol-4-yl)amino]-6-(1-{6-[(5-methyl-1,3-thiazol-2-yl)methoxy]-1,3-benzoxazol-2-yl}azetidin-3-yl)pyrazine-2-carboxamide] | < 1 | 150 | – | 3 | – | – |
| CN(C)C(=O)CCc1ccc2nc(N3CC(c4cnc(Nc5cnn(C)c5)c(C(N)=O)n4)C3)oc2c1 [Example 62, 6-(1-{6-[3-(dimethylamino)-3-oxopropyl]-1,3-benzoxazol-2-yl}azetidin-3-yl)-3-[(1-methyl-1H-pyrazol-4-yl)amino]pyrazine-2-carboxamide] | 3 | 1750 | – | 6 | – | – |
| Cn1cc(Nc2ncc(C3CN(c4nc5ccc(CC(=O)O)cc5o4)C3)nc2C(N)=O)cn1 [Example 65C, [2-(3-{6-carbamoyl-5-[(1-methyl-1H-pyrazol-4-yl)amino]pyrazin-2-yl}azetidin-1-yl)-1,3-benzoxazol-6-yl]acetic acid] | 35 | 3530 | – | 95 | – | – |
| Cn1cc(Nc2ccc(C3CN(c4nc5ccc(OCC(C)(C)O)cc5o4)C3)nc2C(N)=O)cn1 [Example 85, 6-{1-[6-(2-hydroxy-2-methylpropoxy)-1,3-benzoxazol-2-yl]azetidin-3-yl}-3-[(1-methyl-1H-pyrazol-4-yl)amino]pyridine-2-carboxamide] | 2 | 1850 | – | 4 | 37 | – |
| COCCn1cc(-c2ccc3nc(N4CC(c5cnc(Nc6cnn(C)c6)c(C(N)=O)n5)C4)oc3c2)cn1 [Example 91, 6-(1-{6-[1-(2-methoxyethyl)-1H-pyrazol-4-yl]-1,3-benzoxazol-2-yl}azetidin-3-yl)-3-[(1-methyl-1H-pyrazol-4-yl)amino]pyrazine-2-carboxamide] | 2 | 1430 | – | 4 | – | – |
| CCc1ccc2nc(N3CC(c4cnc(Nc5cnn(C)c5)c(C(N)=O)n4)C3)oc2c1 [Example 5, 6-[1-(6-ethyl-1,3-benzoxazol-2-yl)azetidin-3-yl]-3-[(1-methyl-1H-pyrazol-4-yl)amino]pyrazine-2-carboxamide] | < 1 | 83 | – | 2 | – | – |
